Measurements: US20090227606A1, “Methods for Preventing or Treating Acute and Chronic Pain” (priority 2006, published 2009)
“Also recorded” adds a separate entry of the source.

Tests used:
GLT-1 = test: Immunocytochemistry of cultured astrocytes, GLT-1 staining; format: cell-based, rat; settings: treated astrocytes
Protocol: Primary astrocyte-enriched cultures were plated onto sterile 18 mm glass coverslips. After three washes in PBS, cells were permeabilized in 5% glacial acetic acid/95% ethanol (acid-alcohol) for 10 minutes. After washing, cells were incubated in a 1% normal goat serum for 30 minutes and then overnight at 4° C. in primary mouse anti-GFAP (1:500), rabbit anti-GLT-1 (1:500) or guinea pig anti-GLAST (1:2000). The following day, cells were washed and then incubated for 2 hours at room temperature with goat anti-mouse Alexa Fluor™-555 (Invitrogen Corporation, Carlsbad, Calif.) goat anti-guinea pig Alexa Fluor™-488 (Invitrogen Corporation, Carlsbad, Calif.) or goat anti-rabbit Alexa Fluor™-488 (Invitrogen Corporation, Carlsbad, Calif.; all at 1:250). Finally, cells were post-fixed in acid-alcohol and mounted with Vectashield (Vector Labs, Burlingame, Calif.) containing 4′,6-diamidino-2-phenylindole dihydrochloride hydrate (DAPI, Sigma Chemical Co., St Louis, Mo.), in order to visualize cell nuclei. The sections were examined with a fluorescence microscope, and images were captured with a Q-Fire cooled camera (Olympus, Melville, N.Y.). Confocal microscopy was also performed using a Zeiss LSM 510 Meta confocal microscope (Carl Zeiss AG, Oberkochen, Germany). Merged color images were processed using Adobe Photoshop 7.0 (Adobe Systems, San Jose, Calif.).

GLAST = test: DsRed-GLAST-positive puncta in mouse spinal cord dorsal horn; format: in vivo
Protocol: With these in vivo data collected, further experiments were performed in the transgenic mice to more clearly define the effects of propentofylline treatment on GLT-1 and GLAST in the spinal cord. As discussed above, following in vivo testing, mice were transcardially perfused and tissue was fixed with paraformaldehyde. Lumbar spinal cord sections were identified and post-fixed in paraformaldehyde. After one week in sucrose to prevent freeze fracture, spinal cord segments were frozen in dry ice, mounted and prepared with cryostat sectioning. Sections were then subjected to immunohistochemical analysis. […] In order to quantitate the relative number of eGFP (marker for GLT-1) or DsRed (marker for GLAST) puncta in each spinal cord dorsal horn, images using a fluorescence microscope were taken with a Q-Fire cooled camera (397 ms exposure). […] An observer blind to the treatment groups was used to count the relative number of GLT-1 or GLAST positive puncta in the ipsilateral (injured) dorsal horn versus the contralateral (non-injured) dorsal horn. […]
As described previously with rats, mice were transcardially perfused with 0.1 M PBS (phosphate-buffered saline), pH 7.4, followed by 4%-paraformaldehyde in PBS on day 12 post-L5 spinal nerve transection. […] The sections were examined with a fluorescence microscope, and images were captured with a Q-Fire cooled camera. […]

MCP-1 (CCL2) = test: ELISA of MCP-1 release from cultured astrocytes; format: cell-based, rat; settings: seven days
Protocol: After approximately 14 days (2 days after subplating into plates, DIV 14) astrocytes had formed a confluent monolayer. […] Phase contrast microscopy was then carried out in order to assess the morphology of cells after the various treatments. Length of astrocyte processes was quantified by measuring all processes in 2-3 phase contrast images/group by an independent observer, blinded to the treatment groups using Image J v1.34s (National Institutes of Health, Bethesda, Md.).
Standard ELISA was performed for quantitative determination of MCP-1 and MIP-2 protein in cell culture supernatant. Assays were carried out according to the manufacturer's specifications (Biosource, Camarillo, Calif.) using the sandwich enzyme immunoassay procedure. Optical density at 450 nm was obtained using the MRX Revelations program (Dynex Technologies, Chantilly, Va.) and relative protein concentrations were determined by comparing samples to the standard curve generated.

CCCn1cnc2c1c(=O)n(CCCCC(C)=O)c(=O)n2C [propentofylline]
GLT-1 staining (GLT-1): concomitant increase in GLT-1 staining
DsRed-GLAST-positive puncta in injured mice (GLAST; L5/propentofylline vs L5/saline group, day 12): significantly enhanced the number of DsRed-GLAST-positive puncta; also recorded: increased the levels back to that seen in the contralateral side
DsRed-GLAST expression in sham mice (GLAST; sham/propentofylline group): unaffected
LPS-induced MCP-1 (CCL2) release (MCP-1 (CCL2); LPS 1 μg/ml, propentofylline 1000 μM, db-cAMP 250 μM): reversed by co-treatment with propentofylline; also recorded: significantly attenuated
basal MCP-1 (CCL2) release, treatment alone (MCP-1 (CCL2); without LPS): had no effect
